Results: patent US7056922B2, “Acylamino cyclopropane derivatives” (Pfizer Inc, priority 2000, dated 2006)
Counter-ions that a name gives are not always drawn.

What was measured:
[1] = molecular target: human dopamine D3 receptor (Homo sapiens, UniProt P35462); test: Displacement of [3H] 7 OH-DPAT binding to membranes of CHO cells expressing human dopamine D3 receptor; conditions: [3H] 7 OH-DPAT 0.4 nM, CHO cell membranes, cloned human D3 receptor
Procedure: The inhibition constants (Ki) of test compounds were measured by displacement of [^3H] 7 OH-DPAT binding to membrane preparations from Chinese hamster ovary cells expressing human dopamine D3 receptor. Cells expressing the human D3 receptor were homogenized with Polytron and centrifuged for 10 min at 4° C. at 20,000 RPM in a Sorvall RCB5 centrifuge with a SS34 rotor. After repeating the washing once more, the pellet was resuspended in buffer consisting of 120 mM NaCl, 5 mM KCl, 5 mM MgCl2, 2 mM CaCl2 and 50 mM tris, pH 7.4 and the protein content determined using bovine serum albumin as a standard (Bradford, M. M. (1976) Anal. Biochem. 72, 248–254). Compounds at varying concentrations were incubated with the membrane preparations in the presence of 0.4 nM [^3H] 7 OH-DPAT. The assay was incubated for 15 min at 37° C. and the reaction was terminated by rapid filtration with 50 mM Tris pH 7.4, through GF/B filters previously soaked in 0.5% polyethyleneimine. Filters were dried overnight and counted in Betaplate Scintillation counter. Non-specific binding was defined as the radioligand binding remaining after incubation in the presence of 10 μM butacomol. For competition curves, seven concentrations (single log dilutions) of competing unlabeled, compounds were used. Competition curves were analysed simultaneously whenever possible using non-linear least-squares fitting procedures, capable of fitting one, two or three site models.

dopamine D2 receptor = dopamine D2 receptor (Homo sapiens, UniProt P14416); test: Dopamine D2 receptor binding (Binding data table)
Sequence of dopamine D2 receptor (P14416 whole entry, species assumed): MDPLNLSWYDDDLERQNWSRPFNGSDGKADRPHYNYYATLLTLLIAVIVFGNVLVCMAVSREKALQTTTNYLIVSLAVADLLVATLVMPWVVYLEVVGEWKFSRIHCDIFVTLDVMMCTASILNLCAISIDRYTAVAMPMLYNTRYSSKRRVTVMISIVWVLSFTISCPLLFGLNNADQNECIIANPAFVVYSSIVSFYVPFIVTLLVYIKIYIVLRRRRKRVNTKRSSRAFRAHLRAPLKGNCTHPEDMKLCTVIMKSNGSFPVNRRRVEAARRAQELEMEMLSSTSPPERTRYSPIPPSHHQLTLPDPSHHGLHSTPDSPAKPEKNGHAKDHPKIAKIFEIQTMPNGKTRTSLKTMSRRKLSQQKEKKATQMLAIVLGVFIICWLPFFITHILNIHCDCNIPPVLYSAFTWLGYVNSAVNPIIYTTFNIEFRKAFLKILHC

Sequence of human dopamine D3 receptor (P35462 whole entry): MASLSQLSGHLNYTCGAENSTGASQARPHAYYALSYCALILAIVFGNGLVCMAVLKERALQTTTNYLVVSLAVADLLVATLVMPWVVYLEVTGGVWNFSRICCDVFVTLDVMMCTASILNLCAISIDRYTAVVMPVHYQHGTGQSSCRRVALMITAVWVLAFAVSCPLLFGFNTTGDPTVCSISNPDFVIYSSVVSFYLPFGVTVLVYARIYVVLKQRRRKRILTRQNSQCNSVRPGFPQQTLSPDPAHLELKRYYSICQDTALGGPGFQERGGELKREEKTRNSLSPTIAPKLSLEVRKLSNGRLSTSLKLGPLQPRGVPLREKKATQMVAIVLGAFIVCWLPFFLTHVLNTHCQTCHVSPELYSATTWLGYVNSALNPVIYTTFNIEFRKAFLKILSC

Work on Cc1cccc(C)c1C(=O)NCC1CC1CN1CCN(c2cccc(C(F)(F)F)c2)CC1 (single isomer, unassigned) [2,6-Dimethyl-N-{(Z)-2-[4-(3-trifluoromethyl-phenyl)-piperazin-1-ylmethyl]-cyclopropylmethyl}benzamide] yielded a Ki [1] of 5 nM and a Ki (dopamine D2 receptor) of 460 nM.
Cc1cccc(C)c1C(=O)NCC1CC1CN1CCN(c2cc(C(F)(F)F)nc(C(C)(C)C)n2)CC1 (racemic) [N-{(Z)-2-[4-(2-tert-Butyl-6-trifluoromethyl-pyrimidin-4-yl)-piperazin-1-ylmethyl]-cyclopropylmethyl}-2,6-dimethyl-benzamide, dihydrochloride salt] showed a Ki [1] of 16 nM and a Ki (dopamine D2 receptor) of over 770 nM.
Work on CC(C)(C)c1nc(N2CCN(CC3CC3CNC(=O)c3ccc(Cl)cc3)CC2)cc(C(F)(F)F)n1 (racemic) [[Z](+/−)N-{2-[4-(2-tert-Butyl-6-trifluoromethyl-pyrimidin-4-yl)-piperazin-1-ylmethyl]-cyclopropylmethyl}-4-chloro-benzamide] yielded a Ki [1] of 31 nM and a Ki (dopamine D2 receptor) of over 740 nM.
Cc1cccc(C)c1C(=O)NCC1CC1CN1CCN(c2cccc(C(F)(F)F)c2)CC1 (single isomer, unassigned) [2,6-Dimethyl-N-{(E)-2-[4-(3-trifluoromethyl-phenyl)-piperazin-1-ylmethyl]-cyclopropylmethyl}benzamide] showed a Ki [1] of 2 nM and a Ki (dopamine D2 receptor) of 76 nM.
